Test results reported in ChEMBL document CHEMBL1201862, “PubChem BioAssay data set” (2004).
Activity calls are given as the source filed them.

What was measured:
[1] = A cytotoxicity screen of small molecule inhibitors of the PhoP region in Salmonella typhi identified in the primary screen. [Related pubchem assays: 1850, 1864, 1985 ]; assay type: functional
HEK293 = assay: Fluorescence-based counterscreen for potentiators or agonists of NPY-Y2: cell-based high-throughput dose response assay to identify inhibitors of cyclic nucleotide gated ion channel (CNGC) activity. In this assay, the parental HEK293 cell line transfected with a cyclic-nucleotide gated ion channel (CNGC)-based cAMP sensor is used to measure inhibition of isoproterenol-induced CNGC activity by test compound.; assay type: functional; details: Homo sapiens;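 further: stimulus is 1 µM isoproterenol at EC100 plus PDE inhibitor Ro 20-1724 at 25 µM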
[2] = system: Streptococcus sp. 'group A'; assay: Streptococcus pyogenes SK(-)GAS viability under kanamycin – luminescence, BacTiterGlo, confirmation, counter-screen for streptokinase expression inhibitor project, dose response (AID 1900); assay type: functional, organism-based
[3] = molecular target: T1, Neuropeptide Y receptor type 2 (Homo sapiens, UniProt P49146); assay: Fluorescence-based cell-based high-throughput dose response assay for agonists of NPY-Y2. [Related pubchem assays: 1703 (Screening assay (CNGC inhibitors).), 1359 (Screening assay (NPY-Y2 potentiators or agonists).), 1304 (Screening assay (NPY-Y1 potentiators or agonists).), 1710 (Screening assay (NPY-Y2 agonists).), 1791 (Summary AID.)]; assay type: functional
T1 sequence (P49146 whole entry): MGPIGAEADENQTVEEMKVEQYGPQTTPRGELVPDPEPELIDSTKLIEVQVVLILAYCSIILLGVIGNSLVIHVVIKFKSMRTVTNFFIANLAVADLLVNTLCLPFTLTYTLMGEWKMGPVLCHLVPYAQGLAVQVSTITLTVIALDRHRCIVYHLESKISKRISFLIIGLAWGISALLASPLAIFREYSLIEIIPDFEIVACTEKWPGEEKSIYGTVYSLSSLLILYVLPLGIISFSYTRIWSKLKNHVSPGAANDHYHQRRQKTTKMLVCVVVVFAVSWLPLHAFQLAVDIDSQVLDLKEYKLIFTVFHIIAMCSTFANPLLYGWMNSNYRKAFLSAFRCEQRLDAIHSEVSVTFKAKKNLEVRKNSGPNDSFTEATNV

Streptokinase A = molecular target: T2, Streptokinase A (Streptococcus pyogenes serotype M1, UniProt P10520); assay: viability-normalized secreted streptokinase activity reduction – plasminogen activation absorbance, OD405, dose response (AID 1914); assay type: functional, Streptococcus pyogenes M1 GAS;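 further: secreted streptokinase activity via plasminogen activation per viability signal from cell pellet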
T2 sequence (P10520 whole entry): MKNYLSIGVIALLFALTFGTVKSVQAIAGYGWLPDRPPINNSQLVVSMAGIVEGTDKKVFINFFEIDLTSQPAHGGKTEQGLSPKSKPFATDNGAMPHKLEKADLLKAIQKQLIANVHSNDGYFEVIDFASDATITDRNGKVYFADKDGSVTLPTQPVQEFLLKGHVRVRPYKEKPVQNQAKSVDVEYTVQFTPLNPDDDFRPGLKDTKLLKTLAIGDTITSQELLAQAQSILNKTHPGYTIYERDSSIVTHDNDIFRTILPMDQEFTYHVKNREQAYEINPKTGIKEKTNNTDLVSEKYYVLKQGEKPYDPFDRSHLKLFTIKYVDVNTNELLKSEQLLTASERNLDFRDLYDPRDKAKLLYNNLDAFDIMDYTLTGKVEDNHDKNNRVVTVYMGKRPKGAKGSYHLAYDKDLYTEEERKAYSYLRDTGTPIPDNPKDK

[4] = molecular target: T3, Neuropeptide Y receptor type 1 (Homo sapiens, UniProt P25929); assay: Fluorescence-based counterscreen for agonists of NPY-Y2: cell-based high-throughput dose response assay for agonists of NPY-Y1.; assay type: functional
T3 sequence (P25929 whole entry): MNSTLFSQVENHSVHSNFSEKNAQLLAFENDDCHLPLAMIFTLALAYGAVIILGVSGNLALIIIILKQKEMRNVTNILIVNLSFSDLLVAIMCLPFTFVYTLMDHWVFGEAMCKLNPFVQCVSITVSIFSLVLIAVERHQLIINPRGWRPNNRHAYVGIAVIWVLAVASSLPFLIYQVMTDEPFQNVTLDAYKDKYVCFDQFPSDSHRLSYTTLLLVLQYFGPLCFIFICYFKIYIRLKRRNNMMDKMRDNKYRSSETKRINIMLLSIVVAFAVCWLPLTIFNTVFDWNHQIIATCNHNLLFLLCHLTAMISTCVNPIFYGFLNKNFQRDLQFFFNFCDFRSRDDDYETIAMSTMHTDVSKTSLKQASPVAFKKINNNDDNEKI

Streptococcus = assay: GAS UMAA2166 growth inhibition – luminescence, BacTiterGlo, counter-screen for streptokinase expression inhibitor project, dose response (AID 1915); assay type: functional, organism-based;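 further: potency for reduction of bacterial viability or growth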
Fatty acid synthase [5] = molecular target: T4, Fatty acid synthase (Homo sapiens, UniProt P49327); assay: inhibition of human FAS-TE enzyme activity – biochemical, endpoint fluorescence intensity, uHTS hits, dose response (AID 624327); assay type: functional;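 further: fluorescence from hydrolysis of an O-methyl fluorescein acyl ester substrate by the enzyme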
Fatty acid synthase [6] = molecular target: T4, Fatty acid synthase; assay: inhibition of human FAS-TE enzyme activity – biochemical, kinetic fluorescence intensity, dose response (AID 624326); assay type: functional;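 further: rate of fluorescence rise from hydrolysis of a fluorogenic O-methyl fluorescein ester substrate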
Paired box protein Pax-8 = Paired box protein Pax-8 (Homo sapiens, UniProt Q06710); assay: PAX8 transcriptional activity inhibition in RMG-I – RMG-I cells, luciferase, cherry-pick, dose response (AID 687027); assay type: functional, cell-based;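 further: luciferase reporter driven by Pax8 target thyroperoxidase promoter measured by SteadyGlo luminescence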
[7] = molecular target: Mothers against decapentaplegic homolog 3 (Homo sapiens, UniProt P84022); assay: blockers of Smad3 complex formation in lysate – cell lysate, secondary confirmation, chemiluminescent ELISA, HEK293 lysate, dose response (AID 1058); assay type: functional
[8] = molecular target: T5, Eukaryotic translation initiation factor 2-alpha kinase 3 (Homo sapiens, UniProt Q9NZJ5); assay: Dose response cell-based high-throughput screening assay to measure PERK inhibition. [Related pubchem assays: 1416 ]; assay type: functional
[9] = molecular target: T5, Eukaryotic translation initiation factor 2-alpha kinase 3; assay: Counterscreen assay for PERK inhibitors: Dose response cell-based high throughput screening assay to measure inhibition of PERK at 6 hours. [Related pubchem assays: 1522, 1416 ]; assay type: functional
[10] = molecular target: T6, RNA-binding protein pos-1 (Caenorhabditis elegans, UniProt G5EF15); assay: disruptors of C. elegans POS-1 RNA interaction – biochemical, fluorescence polarization, dose response (AID 1964);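 further: purified POS-1 fused to maltose binding protein made in E. coli; potency of compounds blocking POS-1 binding to fluorescent RNA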
T6 sequence (G5EF15 whole entry): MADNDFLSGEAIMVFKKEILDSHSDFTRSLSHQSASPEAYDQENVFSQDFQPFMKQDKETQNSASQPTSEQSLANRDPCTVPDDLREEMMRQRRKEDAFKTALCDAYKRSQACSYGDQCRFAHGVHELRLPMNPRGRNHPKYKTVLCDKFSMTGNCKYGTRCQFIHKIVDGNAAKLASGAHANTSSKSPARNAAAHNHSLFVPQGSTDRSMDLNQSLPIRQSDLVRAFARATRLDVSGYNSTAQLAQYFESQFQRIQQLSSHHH

Cytochrome P450 2D6 = Cytochrome P450 2D6 (Homo sapiens, UniProt P10635); assay: qHTS Assay for Inhibitors and Substrates of Cytochrome P450 2D6. [Related pubchem assays: 410 ]; assay type: ADME; details: human; read-out: Potency
[11] = molecular target: T7, Zinc finger protein mex-5 (Caenorhabditis elegans, UniProt Q9XUB2); assay: potency of MEX-5 RNA-binding blockers – biochemical, C. elegans, fluorescence polarization, dose response (AID 1960)
T7 sequence (Q9XUB2 whole entry): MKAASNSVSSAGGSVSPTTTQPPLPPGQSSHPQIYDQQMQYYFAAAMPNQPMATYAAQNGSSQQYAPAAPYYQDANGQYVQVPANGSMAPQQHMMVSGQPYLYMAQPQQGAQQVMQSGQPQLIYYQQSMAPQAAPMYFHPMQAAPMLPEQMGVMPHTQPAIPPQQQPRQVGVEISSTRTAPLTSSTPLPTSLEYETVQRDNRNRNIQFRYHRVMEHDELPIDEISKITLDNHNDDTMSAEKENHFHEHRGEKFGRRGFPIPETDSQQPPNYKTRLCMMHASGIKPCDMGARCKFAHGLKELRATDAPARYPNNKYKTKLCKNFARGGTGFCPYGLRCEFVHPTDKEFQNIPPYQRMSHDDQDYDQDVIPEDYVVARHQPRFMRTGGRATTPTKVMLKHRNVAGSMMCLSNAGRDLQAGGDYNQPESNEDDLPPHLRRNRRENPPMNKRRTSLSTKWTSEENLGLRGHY

Cytochrome P450 2C19 = Cytochrome P450 2C19 (Homo sapiens, UniProt P33261); assay: Cytochrome panel assay with activity outcomes. Panel member name: p450-cyp2c19 Compounds with AC50 equal or less than 10 uM are considered active; assay type: functional
Vero = assay: viability of Vero cells under compound – cytotoxicity control for flavivirus capping enzyme inhibitors (AID 588742); assay type: functional; details: Chlorocebus sabaeus
Cytochrome P450 2C9 = Cytochrome P450 2C9 (Homo sapiens, UniProt P11712); details: read-out: Potency

T5 sequence (Q9NZJ5 whole entry): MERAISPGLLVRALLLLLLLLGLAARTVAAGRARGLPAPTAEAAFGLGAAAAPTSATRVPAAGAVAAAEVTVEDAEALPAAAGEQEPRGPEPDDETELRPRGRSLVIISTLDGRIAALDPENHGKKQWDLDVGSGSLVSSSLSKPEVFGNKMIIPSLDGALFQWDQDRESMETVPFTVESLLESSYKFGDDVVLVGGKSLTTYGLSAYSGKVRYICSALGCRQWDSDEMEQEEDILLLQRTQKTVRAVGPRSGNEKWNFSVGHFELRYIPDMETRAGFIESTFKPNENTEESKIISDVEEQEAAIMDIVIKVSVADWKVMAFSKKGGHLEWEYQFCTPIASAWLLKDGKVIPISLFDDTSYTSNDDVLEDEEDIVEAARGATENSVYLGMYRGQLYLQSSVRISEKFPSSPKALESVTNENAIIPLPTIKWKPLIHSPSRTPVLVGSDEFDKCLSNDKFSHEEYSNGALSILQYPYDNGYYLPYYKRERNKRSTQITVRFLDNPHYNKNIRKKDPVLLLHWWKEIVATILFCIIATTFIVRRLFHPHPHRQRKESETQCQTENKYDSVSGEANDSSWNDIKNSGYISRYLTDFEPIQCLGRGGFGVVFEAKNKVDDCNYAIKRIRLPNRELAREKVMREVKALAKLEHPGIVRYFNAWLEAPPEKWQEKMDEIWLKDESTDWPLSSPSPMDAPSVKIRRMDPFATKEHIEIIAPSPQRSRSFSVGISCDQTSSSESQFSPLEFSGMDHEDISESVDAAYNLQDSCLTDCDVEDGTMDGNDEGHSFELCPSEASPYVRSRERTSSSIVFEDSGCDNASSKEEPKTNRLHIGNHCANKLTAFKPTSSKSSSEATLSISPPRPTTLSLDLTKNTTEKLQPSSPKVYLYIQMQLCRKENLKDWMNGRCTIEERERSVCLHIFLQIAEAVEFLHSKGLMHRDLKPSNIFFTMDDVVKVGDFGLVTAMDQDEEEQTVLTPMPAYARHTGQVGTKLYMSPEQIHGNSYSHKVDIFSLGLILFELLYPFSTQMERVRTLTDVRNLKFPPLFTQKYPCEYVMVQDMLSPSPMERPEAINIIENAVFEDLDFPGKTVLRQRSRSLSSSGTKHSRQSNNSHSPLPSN
T4 sequence (P49327 whole entry): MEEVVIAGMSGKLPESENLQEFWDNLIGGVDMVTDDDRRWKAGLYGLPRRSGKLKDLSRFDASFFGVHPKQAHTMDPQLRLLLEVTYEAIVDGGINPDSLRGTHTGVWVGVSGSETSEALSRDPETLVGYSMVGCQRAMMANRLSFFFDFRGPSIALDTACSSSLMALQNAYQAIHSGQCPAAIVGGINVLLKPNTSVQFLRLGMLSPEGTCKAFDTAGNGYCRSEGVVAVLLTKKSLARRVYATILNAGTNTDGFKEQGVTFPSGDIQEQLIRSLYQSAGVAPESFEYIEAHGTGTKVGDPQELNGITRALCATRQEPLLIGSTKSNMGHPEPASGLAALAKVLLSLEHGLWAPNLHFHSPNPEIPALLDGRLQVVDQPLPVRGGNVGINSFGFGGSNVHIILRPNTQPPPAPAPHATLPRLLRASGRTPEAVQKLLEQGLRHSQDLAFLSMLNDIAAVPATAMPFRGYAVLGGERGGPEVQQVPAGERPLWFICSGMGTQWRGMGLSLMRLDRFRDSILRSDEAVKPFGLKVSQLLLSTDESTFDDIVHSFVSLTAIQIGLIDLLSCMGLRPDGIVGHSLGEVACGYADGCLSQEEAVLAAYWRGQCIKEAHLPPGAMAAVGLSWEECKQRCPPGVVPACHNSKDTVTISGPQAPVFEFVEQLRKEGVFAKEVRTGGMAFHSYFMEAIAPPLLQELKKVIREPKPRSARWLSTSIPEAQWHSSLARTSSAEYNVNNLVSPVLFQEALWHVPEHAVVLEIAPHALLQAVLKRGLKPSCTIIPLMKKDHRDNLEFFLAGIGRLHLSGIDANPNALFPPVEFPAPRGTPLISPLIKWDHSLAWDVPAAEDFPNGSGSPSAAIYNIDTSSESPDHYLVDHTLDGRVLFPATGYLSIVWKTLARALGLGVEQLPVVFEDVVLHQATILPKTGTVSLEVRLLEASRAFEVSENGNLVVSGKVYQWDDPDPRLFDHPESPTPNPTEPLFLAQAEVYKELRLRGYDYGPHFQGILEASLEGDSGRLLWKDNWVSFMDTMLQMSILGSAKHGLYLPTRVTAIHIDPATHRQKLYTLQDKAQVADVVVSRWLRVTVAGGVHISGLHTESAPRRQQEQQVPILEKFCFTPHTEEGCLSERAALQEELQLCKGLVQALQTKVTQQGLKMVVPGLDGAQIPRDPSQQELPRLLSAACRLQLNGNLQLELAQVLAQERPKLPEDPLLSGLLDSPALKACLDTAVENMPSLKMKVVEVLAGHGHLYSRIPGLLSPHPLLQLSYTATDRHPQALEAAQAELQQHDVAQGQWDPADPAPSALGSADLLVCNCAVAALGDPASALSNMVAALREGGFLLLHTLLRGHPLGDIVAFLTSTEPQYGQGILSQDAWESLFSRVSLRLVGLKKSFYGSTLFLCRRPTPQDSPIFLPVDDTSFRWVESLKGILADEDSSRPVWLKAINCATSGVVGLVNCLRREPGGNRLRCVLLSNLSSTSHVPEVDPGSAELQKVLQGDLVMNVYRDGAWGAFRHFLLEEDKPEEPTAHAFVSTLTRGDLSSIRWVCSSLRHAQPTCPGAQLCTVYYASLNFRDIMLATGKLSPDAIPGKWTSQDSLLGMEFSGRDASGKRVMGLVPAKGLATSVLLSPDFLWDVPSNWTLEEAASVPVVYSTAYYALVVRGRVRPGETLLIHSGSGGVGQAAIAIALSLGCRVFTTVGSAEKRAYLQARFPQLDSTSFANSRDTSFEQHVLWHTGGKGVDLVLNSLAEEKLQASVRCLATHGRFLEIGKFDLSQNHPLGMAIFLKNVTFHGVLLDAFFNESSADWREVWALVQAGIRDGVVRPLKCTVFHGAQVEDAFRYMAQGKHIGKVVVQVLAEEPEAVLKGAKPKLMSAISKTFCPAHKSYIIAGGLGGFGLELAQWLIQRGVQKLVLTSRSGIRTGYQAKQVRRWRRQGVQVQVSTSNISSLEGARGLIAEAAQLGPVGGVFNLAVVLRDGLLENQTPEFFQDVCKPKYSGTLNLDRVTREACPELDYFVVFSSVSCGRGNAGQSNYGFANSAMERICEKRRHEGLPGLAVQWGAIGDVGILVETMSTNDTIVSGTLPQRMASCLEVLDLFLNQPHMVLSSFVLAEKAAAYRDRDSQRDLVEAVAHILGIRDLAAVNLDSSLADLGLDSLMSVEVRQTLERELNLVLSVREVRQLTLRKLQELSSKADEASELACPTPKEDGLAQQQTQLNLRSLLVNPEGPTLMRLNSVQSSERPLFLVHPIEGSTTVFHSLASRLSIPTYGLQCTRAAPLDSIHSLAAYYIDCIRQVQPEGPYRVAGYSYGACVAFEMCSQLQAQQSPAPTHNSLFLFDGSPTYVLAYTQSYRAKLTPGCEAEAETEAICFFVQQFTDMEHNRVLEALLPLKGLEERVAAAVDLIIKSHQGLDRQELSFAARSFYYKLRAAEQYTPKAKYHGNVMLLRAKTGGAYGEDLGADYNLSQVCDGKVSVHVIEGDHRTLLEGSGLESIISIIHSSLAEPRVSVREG
Sequence of Cytochrome P450 2D6 (P10635 whole entry): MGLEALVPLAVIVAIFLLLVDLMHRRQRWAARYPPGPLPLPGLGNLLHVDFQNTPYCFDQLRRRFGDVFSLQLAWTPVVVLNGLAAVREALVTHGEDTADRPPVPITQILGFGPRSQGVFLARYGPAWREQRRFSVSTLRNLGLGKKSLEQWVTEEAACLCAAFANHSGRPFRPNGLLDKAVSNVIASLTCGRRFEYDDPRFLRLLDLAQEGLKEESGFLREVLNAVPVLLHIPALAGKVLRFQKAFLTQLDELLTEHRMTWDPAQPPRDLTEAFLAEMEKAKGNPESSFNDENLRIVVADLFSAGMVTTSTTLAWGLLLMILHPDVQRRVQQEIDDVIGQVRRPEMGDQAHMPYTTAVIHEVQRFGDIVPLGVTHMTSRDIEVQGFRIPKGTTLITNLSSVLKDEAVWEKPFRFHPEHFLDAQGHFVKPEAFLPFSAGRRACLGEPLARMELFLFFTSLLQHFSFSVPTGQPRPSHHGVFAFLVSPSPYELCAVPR
Sequence of Paired box protein Pax-8 (Q06710 whole entry): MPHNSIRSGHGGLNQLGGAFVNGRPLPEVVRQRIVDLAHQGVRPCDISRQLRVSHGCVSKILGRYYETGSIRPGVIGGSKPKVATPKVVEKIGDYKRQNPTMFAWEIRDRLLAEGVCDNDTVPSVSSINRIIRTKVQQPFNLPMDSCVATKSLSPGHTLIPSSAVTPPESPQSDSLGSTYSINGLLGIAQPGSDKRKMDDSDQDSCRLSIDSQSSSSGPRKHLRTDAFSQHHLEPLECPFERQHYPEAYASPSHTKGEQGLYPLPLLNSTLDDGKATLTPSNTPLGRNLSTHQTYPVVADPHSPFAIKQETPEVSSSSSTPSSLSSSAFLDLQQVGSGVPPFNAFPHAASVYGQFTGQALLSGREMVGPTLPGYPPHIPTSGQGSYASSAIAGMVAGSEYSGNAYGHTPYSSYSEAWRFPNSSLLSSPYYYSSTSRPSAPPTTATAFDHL
Sequence of Mothers against decapentaplegic homolog 3 (P84022 whole entry): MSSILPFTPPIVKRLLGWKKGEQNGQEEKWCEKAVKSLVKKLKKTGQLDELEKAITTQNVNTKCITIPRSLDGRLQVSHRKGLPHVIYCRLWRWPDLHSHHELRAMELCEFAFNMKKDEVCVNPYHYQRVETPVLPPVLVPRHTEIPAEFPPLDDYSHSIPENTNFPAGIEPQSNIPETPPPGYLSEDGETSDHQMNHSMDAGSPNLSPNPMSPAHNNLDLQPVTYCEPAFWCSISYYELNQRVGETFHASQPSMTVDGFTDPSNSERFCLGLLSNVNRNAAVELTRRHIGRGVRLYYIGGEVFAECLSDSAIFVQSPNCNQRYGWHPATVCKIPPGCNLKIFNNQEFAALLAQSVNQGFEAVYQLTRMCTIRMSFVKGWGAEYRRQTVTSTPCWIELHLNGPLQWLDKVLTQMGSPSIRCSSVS

Compound: COc1cc(C)c(Cl)cc1S(=O)(=O)n1cnc(C)c1
- EC50 [1]: > 50 µM (active)

Compound: C=CCN1C(=O)/C(=C/c2ccc(OC(C)=O)c(OCC)c2[N+](=O)[O-])SC1=S
- EC50 (HEK293): > 11.8 µM (not active)
- EC50 [2]: 1.32 µM (active)
- EC50 [3]: 18.4 µM (not active)
- EC50 (Streptokinase A): > 150 µM (not active)
- EC50 [4]: 14.8 µM (not active)
- EC50 (Streptococcus): 2.63 µM (active)
- IC50 (Fatty acid synthase [5]): 5.92 µM (active)
- IC50 (Fatty acid synthase [6]): 2.87 µM (active)
- AC50 (Paired box protein Pax-8): 5.91 µM (active)

Compound: COc1ccc(C(c2cc3c(cc2O)OCO3)N2CCN(C(c3ccc(OC)cc3)c3cc4c(cc3O)OCO4)CC2)cc1 (centres undefined)
- IC50 [7]: 36.1 µM (not active)

Compound: Cc1cccc(/C=N/n2c(S)nnc2-c2ccco2)c1
- EC50 [8]: > 55.7 µM (not active)
- EC50 [9]: > 55.7 µM (not active)

Compound: C=CC1=C(C)c2cc3[nH]c(cc4nc(cc5[nH]c(cc1n2)c(C)c5CCC(=O)O)C(CCC(=O)O)=C4C)c(C)c3C=C [PROTOPORPHYRIN]
- EC50 [10]: 9.95 µM (active)
- AC50 (Cytochrome P450 2D6): 25.1 µM (inconclusive)
- EC50 [11]: 8.89 µM (active)
- AC50 (Cytochrome P450 2C19): inconclusive
- CC50 (Vero): 19.7 µM (active)
- AC50 (Cytochrome P450 2C9): 6.31 µM (inconclusive)
